One assay deals with T1, opiate receptor K (Cavia porcellus, UniProt P41144).
T1 construct: Membrane residues prepared from guinea-pig cerebellum; from tissue; host or cells: guinea-pig cerebellum membranes
The assay can be described thus: Bond to the opiate receptor K in vitro (displacement of 3H Ethylketocyclazocin, guinea-pig cerebellum membranes). The format is binding. To be noted: for IC50: 3H Ethylketocyclazocin 1 nM, guinea-pig cerebellum membranes, Tris buffer pH 7.7, 25° C., 40 minutes, read-out: 50% inhibiting concentration (IC50); for relative bond affinity (RBA): relative to product U 50 488 H as reference. Here is the method:
(2) Bond to the opiate receptor K in vitro
Membrane residues prepared from guinea-pig cerebellum kept at -30° C. for about 30 days were used and these residues were suspended in Tris buffer pH 7.7. Fractions of 2 ml were distributed into hemolysis tubes, and […] Ethylketocyclazocin 1 nM and the product to be studied were added. The products were first tested to 5×10^-6 M in triplicate. When the products tested displaced more than 50% of the radioactivity specifically linked to the receptor, they were tested again according to a range of 7 doses to determine the dose which inhibited by 50% the radioactivity specifically linked to the receptor. In this way, the 50% inhibiting concentration was determined.
The non-specific bond was determined by the addition of a product known as U 50488 H(ref. Up. John) to 10^-5 M in triplicate. After incubating at 25° C. for 40 minutes, returning to the water-bath at 0° C. for 5 minutes, filtering under reduced pressure, and rinsing in Tris buffer pH 7.7, the radioactivity was counted in the presence of scintillating Trition. The results were expressed: either directly as 50% inhibiting concentration (IC50), that is as a concentration of the product studied, expressed in nM, necessary to displace 50% of the specific radioactivity fixed on the receptor studied, or in relative bond affinity (=RBA) taking the product U 50 488 H as reference [formula]
On the technique in general: Displacement assays read how much labelled ligand stays bound in the presence of the test substance.

A further assay deals with T2, opiate receptor μ (Rattus norvegicus, UniProt P33535).
T2 construct: prepared from brains of rats; from tissue; host or cells: rat brain membranes
T2 sequence (P33535 whole entry): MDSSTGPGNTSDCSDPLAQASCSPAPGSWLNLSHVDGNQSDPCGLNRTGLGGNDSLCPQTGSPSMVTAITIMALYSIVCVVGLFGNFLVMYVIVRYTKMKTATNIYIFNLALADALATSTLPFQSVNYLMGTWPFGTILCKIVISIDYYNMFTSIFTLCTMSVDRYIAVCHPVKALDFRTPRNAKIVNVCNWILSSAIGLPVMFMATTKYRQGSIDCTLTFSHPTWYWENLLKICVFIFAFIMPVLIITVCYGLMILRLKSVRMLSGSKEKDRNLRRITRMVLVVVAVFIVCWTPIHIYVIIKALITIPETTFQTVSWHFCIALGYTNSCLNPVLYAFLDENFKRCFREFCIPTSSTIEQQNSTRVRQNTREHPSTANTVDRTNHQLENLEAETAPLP
Kind of assay: Bond to the opiate receptor μ in vitro (displacement of 3H dihydromorphine, rat brain membranes). The format is binding, rats. The following applies: for IC50: 3H dihydromorphine 0.7 nM, rat brain membranes, Tris buffer pH 7.7, 25° C., 40 minutes, read-out: 50% inhibiting concentration (IC50); for relative bond affinity (RBA): relative to morphine=100. As to the method:
(1) Bond to the opiate receptor μ in vitro
Membrane residues preserved at -30° C. for about 30 days and prepared from brains of rats were used in this test and these residues were suspended in Tris buffer pH 7.7. Fractions of 2 ml were distributed into hemolysis tubes and ^3 H dihydromorphine 0.7 nM and the product to be studied were added. The products were first of all tested with 5×10^-6 M in triplicate. When the tested products displaced more than 50% of the radioactivity specifically linked to the receptor, they were tested again according to a range of 7 doses to determine the dose which inhibited by 50% the radioactivity specifically linked to the receptor. The 50% inhibiting concentration was thus determined.
The non-specific bond was determined by addition of 10^-5 M morphine in triplicate. After incubating at 25° C. for 40 minutes, returning to the water-bath at 0° C. for 5 minutes, filtering under vacuum, rinsing with Tris buffer pH 7.7, the radioactivity was counted in the presence of scintillating Trition. The results were expressed: either directly as 50% inhibiting concentration (IC50), that is as a concentration of the product studied, expressed in nM, necessary to displace 50% of the specific radioactivity fixed on the receptor studied, or in relative bond affinity (RBA), taking morphine=100 as a reference [formula]

The nature of assay [1]: Analgesic activity, warm plate test. The following applies: Mus musculus, 1 h, female mice, 56° C. plate, 60 minutes after treatment, read-out: AD100 (dose which increased the reaction time by 100%). The assay is classed as in vivo. Here is the method: Female mice weighing from 22 to 24 g were placed one by one on a copper plate maintained at 56° C. The reaction to pain was shown by the animals licking their front paws and the time of this reaction was noted and was only retained when the mice reacted in less than 8 seconds. The animals were divided into equal groups and were treated with the products to be studied, one group receiving only the vehicle. The time of reaction to pain was again measured 30 to 60 minutes after the treatment and the active dose or AD100 was the dose which increased the reaction time by 100%, 60 minutes after the treatment, taking account of the variations of the reaction time of the control animals.

The structures appear in SMILES notation. Like-named read-outs stand apart in the source and are kept apart here.

T1 sequence (P41144 whole entry): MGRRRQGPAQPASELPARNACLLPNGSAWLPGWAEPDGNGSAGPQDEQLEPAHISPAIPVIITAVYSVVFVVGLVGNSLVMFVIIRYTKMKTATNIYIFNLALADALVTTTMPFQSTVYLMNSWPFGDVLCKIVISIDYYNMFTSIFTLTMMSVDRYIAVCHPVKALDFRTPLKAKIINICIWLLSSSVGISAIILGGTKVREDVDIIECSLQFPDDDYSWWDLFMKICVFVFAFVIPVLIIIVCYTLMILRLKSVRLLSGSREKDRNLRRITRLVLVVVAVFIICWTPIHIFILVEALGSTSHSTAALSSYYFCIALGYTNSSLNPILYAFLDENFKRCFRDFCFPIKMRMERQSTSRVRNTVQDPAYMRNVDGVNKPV

As for `CCCN1CC=C(c2cccc3[nH]ccc23)CC1` [Example 7, 4-(1-propyl-1,2,3,6-tetrahydropyridin-4-yl)-1H-indole], on opiate receptor K, the IC50 was 0.182 µM and the “relative bond affinity (RBA)” value is 1.4.
Turning to `C=CCOc1ccccc1OCC(O)CN1CC=C(c2cccc3[nH]ccc23)CC1` (stereo not drawn) [Example 11, 4-(1H-indol-4-yl)-α-[[2-(2-propenyloxy)-phenoxy]-methyl]-1,2,3,6-tetrahydro-1-pyridine ethanol], on opiate receptor μ, the IC50 worked out at 0.00943 µM and the “relative bond affinity (RBA)” value stood at 22.43.
Turning to `C=CCOc1ccccc1OCC(O)CN1CC=C(c2cccc3c2CC(=O)N3)CC1` (centres unmarked) [Example 13, 1,3-dihydro-4-[1-[2-hydroxy-3-[2-(2-propenyloxy)-phenoxy]propyl]-1,2,3,6-tetrahydro-4-pyridinyl]-2H-indol-2-one], in assay [1] (oral route), the ED (100% increase in reaction time) was 20 mg/kg. On opiate receptor μ, the IC50 amounted to 0.0014 µM and the “relative bond affinity (RBA)” value is given as 270.
In the case of `COC1(c2cccc3[nH]ccc23)CCNCC1` [Example 14, 4-(4-methoxy-4-piperidinyl)-1H-indole], in assay [1] (central, intracerebral ventricle route), the ED (100% increase in reaction time) stood at 0.5 mg/kg. In addition, at opiate receptor μ, the IC50 was 0.028 µM and the “relative bond affinity (RBA)” value was determined as 13.
Regarding `Cl.O=C1Cc2c(cccc2C2=CCN(CCc3ccccc3)CC2)N1` [Example 26, 1,3-dihydro-4-[1-(2-phenylethyl)-1,2,3,6-tetrahydro-4-pyridinyl]-2H-indole-2-one hydrochloride], at opiate receptor μ, the IC50 was found to be 0.059 µM and the “relative bond affinity (RBA)” value is given as 8.2.
Take `Cl.O=C1Cc2c(cccc2C2=CCN(CCOc3ccccc3)CC2)N1` [Example 29, 1,3-dihydro-4-[1-(2-phenoxyethyl)-1,2,3,6-tetrahydro-4-pyridinyl]-2H-indol-2-one hydrochloride]: on opiate receptor K, the IC50 is 0.152 µM and the “relative bond affinity (RBA)” value came to 1.1. On opiate receptor μ, the IC50 was determined as 0.011 µM and the “relative bond affinity (RBA)” value was 23.
For `Cl.O=C1Cc2c(cccc2C2=CCN(CCCC(=O)c3ccc(F)cc3)CC2)N1` [Example 32, 1,3-dihydro-4-[1-[(4-fluorophenyl)-4-oxobutyl]-1,2,3,6-tetrahydropyridin-4-yl]-2H-indole-2-one hydrochloride], in that order: 0.46 µM, 1.3, 0.0035 µM and 62.

The values are drawn from patent US4737505A, “Analgesic 4-substituted indoles” (priority 1984, dated 1988).
